pEC50: −log10 of the molar value.
What was measured:
human P2Y2 receptor = human P2Y2 receptor (Homo sapiens, UniProt P41231); format: cell-based; conditions: at concentrations up to 10 μM
human P2Y14 receptor [1] = molecular target: T1, human P2Y14 receptor (Homo sapiens, UniProt Q15391); experiment: Stimulation of PLC; format: cell-based; conditions: for fold less potent than 1 at the P2Y14 receptor: relative to 1; for activation of the P2Y14 receptor, % of full activation: at 10 μM
T1 sequence (Q15391 1-338): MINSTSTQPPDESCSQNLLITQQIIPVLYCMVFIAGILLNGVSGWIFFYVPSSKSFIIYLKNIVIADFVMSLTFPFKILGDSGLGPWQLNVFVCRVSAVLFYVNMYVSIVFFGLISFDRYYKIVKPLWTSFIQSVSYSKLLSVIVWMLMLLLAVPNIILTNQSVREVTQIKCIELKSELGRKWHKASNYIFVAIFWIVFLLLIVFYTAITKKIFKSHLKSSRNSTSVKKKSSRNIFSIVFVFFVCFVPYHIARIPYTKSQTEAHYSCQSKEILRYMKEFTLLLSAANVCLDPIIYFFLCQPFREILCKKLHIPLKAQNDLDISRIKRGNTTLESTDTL

human P2Y14 receptor [2] = molecular target: T1, human P2Y14 receptor; conditions: cited from earlier work
rat P2Y14 receptor = conditions: cited from earlier work

Sequence of human P2Y2 receptor (P41231 whole entry): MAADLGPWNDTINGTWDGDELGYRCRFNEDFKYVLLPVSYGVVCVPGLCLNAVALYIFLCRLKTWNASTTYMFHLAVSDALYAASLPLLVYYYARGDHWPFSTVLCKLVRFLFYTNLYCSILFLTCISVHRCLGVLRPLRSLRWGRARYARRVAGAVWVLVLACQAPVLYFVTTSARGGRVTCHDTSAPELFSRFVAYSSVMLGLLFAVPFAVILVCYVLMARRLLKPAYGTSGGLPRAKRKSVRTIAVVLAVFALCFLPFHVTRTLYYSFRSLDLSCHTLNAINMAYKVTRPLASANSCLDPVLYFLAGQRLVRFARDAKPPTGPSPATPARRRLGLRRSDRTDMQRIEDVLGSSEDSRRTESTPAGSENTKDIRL

Structure (SMILES): O=c1ccn([C@@H]2O[C@H](COP(=O)(O)OP(=O)(O)O[C@H]3O[C@H](CO)[C@@H](O)[C@H](F)[C@H]3O)[C@@H](O)[C@H]2O)c(=O)[nH]1 [Compound 12, UDP-3″-F-[1″]3″-deoxy glucose]
- activity at the human P2Y2 receptor (activation of PLC) (human P2Y2 receptor): inactive

Structure (SMILES): CC(=O)NCCNC(=O)[C@H]1O[C@H](OP(=O)(O)OP(=O)(O)OC[C@H]2O[C@@H](n3ccc(=O)[nH]c3=O)[C@H](O)[C@@H]2O)[C@H](O)[C@@H](O)[C@@H]1O [Compound 17a, Diphosphoric Acid 1″-α-D-[1″](Glucuronic acid-N-(2-acetylethyl amide))pyranosyl Ester 2-(uridin-5′-yl)ester]
- efficacy at the P2Y14 receptor (human P2Y14 receptor [1]): fully activate
- activity at the human P2Y2 receptor (activation of PLC) (human P2Y2 receptor): inactive

Structure (SMILES): O=c1ccn([C@@H]2O[C@H](COP(=O)(O)OP(=O)(O)O[C@H]3O[C@H](CO)[C@@H](O)[C@H](O)[C@H]3F)[C@@H](O)[C@H]2O)c(=O)[nH]1 [Compound 11, UDP-2″-F-[1″]2″-deoxy glucose]
- fold less potent than 1 at the P2Y14 receptor (human P2Y14 receptor [1]): 9.6 fold

Structure (SMILES): O=c1ccn([C@@H]2C[C@H](COP(=O)(O)OP(=O)(O)O[C@H]3O[C@H](CO)[C@@H](O)[C@H](O)[C@H]3O)[C@@H](O)[C@H]2O)c(=O)[nH]1 [Compound 29, Diphosphoric Acid 1″-α-D-[1″]Glucopyranosyl Ester 2-(carbocyclic uridin-5′-yl)ester]
- activation of the P2Y14 receptor, % of full activation (human P2Y14 receptor [1]): < 20%

Structure (SMILES): CC(C)(C)OC(=O)NCCNC(=O)[C@H]1O[C@H](OP(=O)(O)OP(=O)(O)OC[C@H]2O[C@@H](n3ccc(=O)[nH]c3=O)[C@H](O)[C@@H]2O)[C@H](O)[C@@H](O)[C@@H]1O [Compound 17b, Diphosphoric Acid 1″-α-D-[1″] (Glucuronic acid-N-(2-t-butyloxycarbonylethyl amide))pyranosyl Ester 2-(uridin-5′-yl)ester]
- efficacy at the P2Y14 receptor (human P2Y14 receptor [1]): fully activate

Structure (SMILES): O=c1ccn(C2CC(O)C(COP(=O)(O)OP(=O)(O)OC3OC(CO)C(O)C(O)C3O)O2)c(=O)[nH]1 (stereo not shown) [2′-deoxy-UDPG]
- activity at the P2Y14 receptor (human P2Y14 receptor [2]): inactive

Structure (SMILES): O=c1ccn([C@@]23C[C@H]2[C@H](COP(=O)(O)OP(=O)(O)O[C@H]2O[C@H](CO)[C@@H](O)[C@H](O)[C@H]2O)[C@@H](O)[C@H]3O)c(=O)[nH]1 [Compound 27, Diphosphoric Acid 1″-α-D-[1″]Glucopyranosyl Ester 2-((S)-Methanocarba-uridin-5′-yl)ester]
- pEC50 (human P2Y14 receptor [1]): < 5.00
- agonist activity at the P2Y14 receptor (human P2Y14 receptor [1]): abolished agonist activity

Structure (SMILES): O=c1ccn([C@@H]2O[C@H](COP(=O)(O)OP(=O)(O)O[C@H]3O[C@H](CO)[C@@H](O)[C@H](O)[C@H]3O)[C@@H](O)[C@H]2O)c(=S)[nH]1 [Compound 2, 2-thio-UDP-[1″]glucose]
- activity at the human P2Y2 receptor (activation of PLC) (human P2Y2 receptor): inactive
- fold increase in P2Y14 potency (human P2Y14 receptor [2]; relative to 1): 7 fold

Structure (SMILES): O=c1ccn([C@@H]2O[C@H](COP(=O)(O)OP(=O)(O)OC[C@H]3O[C@H](O)C[C@@H](O)[C@@H]3O)[C@@H](O)[C@H]2O)c(=O)[nH]1 [Compound 20, Up2-[6″]2″-deoxyglucose]
- activation of the P2Y14 receptor, % of full activation (human P2Y14 receptor [1]): less than 50%

Structure (SMILES): CO/N=c1/ccn([C@@H]2O[C@H](COP(=O)(O)OP(=O)(O)O[C@H]3O[C@H](CO)[C@@H](O)[C@H](O)[C@H]3O)[C@@H](O)[C@H]2O)c(=O)[nH]1 [Compound 4, Diphosphoric Acid 1″-α-D-[1″]Glucopyranosyl Ester 2-((N^4-methoxy)cytidin-5′-yl)ester]
- agonist activity at the P2Y14 receptor (human P2Y14 receptor [1]): only weakly active

Structure (SMILES): NCCNC(=O)[C@H]1O[C@H](OP(=O)(O)OP(=O)(O)OC[C@H]2O[C@@H](n3ccc(=O)[nH]c3=O)[C@H](O)[C@@H]2O)[C@H](O)[C@@H](O)[C@@H]1O [Compound 16, Diphosphoric Acid 1″-α-D-[1″](Glucuronic acid-N-(2-amino-ethyl amide))pyranosyl Ester 2-(uridin-5′-yl)ester]
- efficacy at the P2Y14 receptor (human P2Y14 receptor [1]): fully activated the receptor

Structure (SMILES): O=c1ccn([C@@H]2O[C@H](COP(=O)(O)OP(=O)(O)O[C@H]3O[C@H](CO)[C@@H](F)[C@H](O)[C@H]3O)[C@@H](O)[C@H]2O)c(=O)[nH]1 [Compound 13, UDP-4″-F-[1″]4″-deoxy glucose]
- fold less potent than 1 at the P2Y14 receptor (human P2Y14 receptor [1]): 2 fold

Structure (SMILES): O=c1ccn([C@@H]2O[C@H](COP(=O)(O)OP(=O)(O)OC[C@H]3O[C@](O)(CO)[C@@H](O)[C@@H]3O)[C@@H](O)[C@H]2O)c(=O)[nH]1 [Compound 24, Up2-[6″]fructose]
- activity at the human P2Y2 receptor (activation of PLC) (human P2Y2 receptor): inactive

Structure (SMILES): O=c1ccn([C@@H]2O[C@H](COP(=O)(O)OP(=O)(O)OC[C@H]3O[C@H](O)[C@@H](O)[C@@H]3O)[C@@H](O)[C@H]2O)c(=O)[nH]1 [Compound 22, Up2-[5″]arabinose]
- fold decrease in P2Y14 potency on inversion of the 2″-hydroxyl configuration (human P2Y14 receptor [1]; relative to 21): 2 fold

Structure (SMILES): O=c1ccn([C@H]2[C@H](O)[C@H](O)[C@@]3(COP(=O)(O)OP(=O)(O)O[C@H]4O[C@H](CO)[C@@H](O)[C@H](O)[C@H]4O)C[C@H]23)c(=O)[nH]1 [Compound 28, Diphosphoric Acid 1″-α-D-[1″]Glucopyranosyl Ester 2-((N)-Methanocarba-uridin-5′-yl)ester]
- pEC50 (human P2Y14 receptor [1]): < 5.00
- agonist activity at the P2Y14 receptor (human P2Y14 receptor [1]): abolished agonist activity

Structure (SMILES): O=c1ccn([C@@H]2O[C@H](COP(=O)(O)OP(=O)(O)O[C@H]3O[C@H](CF)[C@@H](O)[C@H](O)[C@H]3O)[C@@H](O)[C@H]2O)c(=O)[nH]1 [Compound 14, UDP-6″-F-[1″]6″-deoxy glucose]
- fold less potent than 1 at the P2Y14 receptor (human P2Y14 receptor [1]): 3.5 fold

Structure (SMILES): O=c1ccn([C@@H]2O[C@H](COP(=O)(O)OP(=O)(O)O)[C@@H](O)[C@H]2O)c(=O)[nH]1 [UDP, Uridine 5′-diphosphate]
- type of activity at the human P2Y14 receptor (human P2Y14 receptor [2]): partial agonist/competitive antagonist
- type of activity at the rat P2Y14 receptor (rat P2Y14 receptor): potent agonist

From article PMC2760346 (Bioorganic & medicinal chemistry, 2009)
